Laboratory results taken from ChEMBL document CHEMBL5360670, “Novel Dihydroorotate Dehydrogenase Inhibitors for Treating Acute Myelogenous Leukemia” (ACS Med Chem Lett, 2023).

What follows are compounds tested on MOLM-13 (assay: Cytotoxicity against human MOLM-13 cells assessed as reduction in cell viability incubated for 72 hrs by Celltiter-glo luminescent assay). Conditions: MOLM-13, 72 h.
Format: functional, cell-based

Structure (SMILES)	IC50
Cc1ccccc1-n1cc(C(C)C)c2cc(-c3cn(C)c(C(C)(C)O)n3)c(F)cc2c1=O	0.08 nM
Cc1ccccc1-n1cc(C(C)C)c2cc(-c3cn(C)c([C@@H](C)O)n3)c(F)cc2c1=O	0.1 nM
Cc1ccccc1-n1nc(C(C)C)c2cc(-c3cn(C)c(C(C)(C)O)n3)c(F)cc2c1=O	0.09 nM
Cc1ccccc1-n1cc(C(C)C)c2cc(-c3ccc(C)c(N)n3)c(F)cc2c1=O	0.02 nM
Cc1ccccc1-n1cc(C(C)C)c2cc(-c3nc(C(C)(C)O)n(C)n3)c(F)cc2c1=O	0.08 nM
[2H]C([2H])([2H])n1cc(-c2cc3c(C(C)C)cn(-c4ccccc4C)c(=O)c3cc2F)nc1C(C)(C)O	0.04 nM

What follows are compounds tested against Dihydroorotate dehydrogenase (quinone), mitochondrial (Homo sapiens, UniProt Q02127) (assay: Inhibition of human DHODH using dihydroorotate and CoQ6 as substrate by DCIP dye based spectrophotometry analysis). Conditions: not given.
Sequence of Dihydroorotate dehydrogenase (quinone), mitochondrial (Q02127 whole entry): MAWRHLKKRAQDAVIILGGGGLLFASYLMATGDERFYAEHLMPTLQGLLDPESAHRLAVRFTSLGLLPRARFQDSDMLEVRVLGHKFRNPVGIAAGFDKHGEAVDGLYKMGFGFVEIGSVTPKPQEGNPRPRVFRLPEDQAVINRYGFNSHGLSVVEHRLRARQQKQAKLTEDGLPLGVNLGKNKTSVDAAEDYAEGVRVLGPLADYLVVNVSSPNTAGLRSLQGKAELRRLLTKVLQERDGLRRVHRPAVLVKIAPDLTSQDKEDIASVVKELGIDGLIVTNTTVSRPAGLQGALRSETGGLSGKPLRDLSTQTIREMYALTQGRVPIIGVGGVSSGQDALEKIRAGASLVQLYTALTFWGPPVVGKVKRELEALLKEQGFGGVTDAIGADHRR

Structure (SMILES)	IC50
[2H]C([2H])([2H])n1cc(-c2cc3c(C(C)C)cn(-c4ccccc4C)c(=O)c3cc2F)nc1C(C)(C)O	0.54 nM
